PubChem BioAssay AID557 (SRMLSC, 2006)
Activity calls are given as the source filed them.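 The calls were made as follows: active = clearly stronger inhibition of the target kinase than of the helper enzymes tested alone in a counter assay; inactive = the rest.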

target: mevalonate kinase (Streptococcus pneumoniae D39); test: mevalonate kinase inhibition dose curves – biochemical, PK/LDH-coupled NADH absorbance, hexokinase coupling counter-screen, dose response (AID 557); details: purified MK, PK/LDH coupled NADH absorbance 340 nm

**Q.** Which outcome does the source give for `CCOC(=O)c1[nH]c2ccccc2c1NC(=O)c1ccc(Br)o1` here?
**A.** inactive

**Q.** For `COc1ccc(CN2C(=O)c3cccnc3C2Nc2cc(Cl)c(OC)cc2OC)cc1` (centres undefined), which IC50 is on record?
**A.** 15.2 µM

**Q.** With `COc1ccc(N(CC(=O)NCc2cccs2)S(=O)(=O)c2cccnc2)cc1` as the molecule, how does the outcome read?
**A.** inactive

**Q.** With `COc1ccc(Cl)cc1NC(=O)C1CCCN(S(=O)(=O)c2cccc3nonc23)C1` (centres undefined) as the molecule, how does the outcome read?
**A.** inactive

**Q.** For `CCOC(=O)c1cc2sc(C)cc2n1CC(=O)N1CCN(C(=O)c2ccco2)CC1`, which outcome is on record?
**A.** inactive

**Q.** Which outcome does the source give for `Cc1c(S(=O)(=O)Nc2cccc(Cl)c2)c(=O)n(C)c(=O)n1C` here?
**A.** inactive

**Q.** With `Cc1ccc2[nH]c(=O)c(CN(CCN3CCOCC3)C(=O)Nc3ccccc3F)cc2c1` as the molecule, how does the outcome read?
**A.** inactive

**Q.** With `CC(=O)NC(CCS(C)(=O)=O)C(=O)Nc1c(C)cccc1C` (centres undefined) as the molecule, how does the outcome read?
**A.** inactive

**Q.** With `COC(=O)C1=C(C)OC(N)=C(C#N)C1c1cc(OC)c(OCC(N)=O)cc1Cl` (centres undefined) as the molecule, how does the outcome read?
**A.** inactive

**Q.** With `COc1ccc(-c2nc(C#N)c(N3CCOCC3)o2)cc1OC` as the molecule, how does the outcome read?
**A.** inactive

**Q.** For `CCn1nnc(NC(=O)c2cccc(-c3cc4ccccc4oc3=O)c2)n1`, which outcome is on record?
**A.** inactive

**Q.** For `O=C1C(=O)N(CCN2CCOCC2)C(c2ccncc2)/C1=C(/O)c1ccc2c(c1)OCO2` (centres undefined), which IC50 is on record?
**A.** 116 µM

**Q.** With `Cc1occc1C(=O)Nc1nnc(C(F)(F)F)s1` as the molecule, how does the outcome read?
**A.** inactive

**Q.** With `COc1cccc(N2CCN(C3CC(=O)N(c4ccc(C)c(Cl)c4)C3=O)CC2)c1` (centres undefined) as the molecule, how does the outcome read?
**A.** inactive

**Q.** Which outcome does the source give for `COc1ccc2nc(NC(=O)C3CCCN(S(=O)(=O)c4cccc5nonc45)C3)sc2c1` (centres undefined) here?
**A.** inactive

**Q.** Which outcome does the source give for `CC(C)OCCCNC(=O)CN1C(=O)CC(C)(C)S(=O)(=O)c2ccccc21` here?
**A.** inactive

**Q.** For `Cc1nn(-c2ccccc2)c2c1C(O)n1c(nc3ccccc31)S2` (centres undefined), which outcome is on record?
**A.** inactive

**Q.** Which outcome does the source give for `Cc1noc(C)c1CSc1nnc(C)c(=O)[nH]1` here?
**A.** inactive

**Q.** Which outcome does the source give for `COc1ccccc1N1CCN(Cc2ccc(OC)c3ccccc23)CC1` here?
**A.** inactive

**Q.** With `O=C(c1ccc(F)cc1)N1CCC(N2CCCCCC2)CC1` as the molecule, how does the outcome read?
**A.** inactive

**Q.** For `N/C(CCN1CCOCC1)=N/O`, which outcome is on record?
**A.** inactive

**Q.** For `Cn1c(SCCOc2cccc(Cl)c2)nnc1-c1ccncc1`, which outcome is on record?
**A.** inactive

**Q.** Which outcome does the source give for `COc1cc(NC(=O)c2cc(CC(C)C)on2)c(OC)cc1Cl` here?
**A.** inactive

**Q.** For `Cc1cc(N2CCN(C(=O)c3ccco3)CC2)n2ncnc2n1`, which outcome is on record?
**A.** inactive

**Q.** With `CN(C)c1ccc(CNCCC2(O)CCOC(C)(C)C2)cc1` (centres undefined) as the molecule, how does the outcome read?
**A.** inactive

**Q.** With `O=C1CN(C(=O)COC(=O)C2=COCCO2)c2ccccc2N1` as the molecule, how does the outcome read?
**A.** inactive

**Q.** With `O=C(NCc1cn2ccccc2n1)c1ccccc1` as the molecule, how does the outcome read?
**A.** inactive

**Q.** Which outcome does the source give for `Cc1cc(NC(=O)c2cc(C3CC3)on2)no1` here?
**A.** inactive

**Q.** With `Cc1ccsc1CN1CCN(c2ccccn2)CC1` as the molecule, how does the outcome read?
**A.** inactive

**Q.** Which outcome does the source give for `Cc1ccc(CNC(=O)C2CCN(S(=O)(=O)c3c(C)noc3C)CC2)cc1` here?
**A.** inactive

**Q.** For `COc1cc2c(cc1OC)CN(Cc1ccc(OC)c(C)c1OC)CC2`, which outcome is on record?
**A.** inactive

**Q.** Which outcome does the source give for `CCCCOC(=O)CSC1=C(C#N)C(c2ccccc2OC)C(C#N)C(=O)N1` (centres undefined) here?
**A.** inactive

**Q.** Which outcome does the source give for `Cc1cccc(C(=O)Nc2ccccc2C(=O)OCc2c(C)noc2C)c1` here?
**A.** inactive

**Q.** For `COc1ccc(CN2C(=O)c3cccnc3C2Nc2cc(Cl)ccc2OC)cc1` (centres undefined), which IC50 is on record?
**A.** 5.71 µM

**Q.** With `CCC(=O)Nc1ccc(NC(=O)c2ccccn2)cn1` as the molecule, how does the outcome read?
**A.** inactive

**Q.** Which outcome does the source give for `COc1ccc(N(CC(=O)Nc2cc(OC)ccc2OC)S(C)(=O)=O)cc1` here?
**A.** inactive

**Q.** For `CCCCn1c(Cl)nc2c1c(=O)n(C)c(=O)n2C`, which outcome is on record?
**A.** inactive

**Q.** With `O=c1c(-c2ccccc2)c(O)c2cccc3c2n1CCC3` as the molecule, how does the outcome read?
**A.** inactive

**Q.** For `Cn1cnnc1SCC(=O)n1c2ccccc2c2ccccc21`, which outcome is on record?
**A.** inactive

**Q.** For `Cc1ccc(C(=O)COC(=O)CNC(=O)c2ccco2)cc1`, which outcome is on record?
**A.** inactive

**Q.** With `COc1ccc2[nH]cc(C3N4CC5(C)CN3CC(C)(C4)C5=O)c2c1` (centres undefined) as the molecule, how does the outcome read?
**A.** inactive

**Q.** For `COc1ncnc(OC)c1NC(=O)c1ccc(F)cc1`, which outcome is on record?
**A.** inactive

**Q.** With `c1ccn2c(SCc3ccc4c(c3)OCO4)nnc2c1` as the molecule, how does the outcome read?
**A.** inactive

**Q.** With `CCOc1cc(C(=O)NCCN2CCOCC2)cc(OCC)c1OCC` as the molecule, how does the outcome read?
**A.** inactive

**Q.** With `CCCc1[nH]nc2c1C(c1ccc(OC)c(Cn3nnc4ccccc43)c1)C(C#N)=C(N)O2` (centres undefined) as the molecule, how does the outcome read?
**A.** inactive

**Q.** Which outcome does the source give for `O=c1c2ccccc2nnn1CSc1nnc(-c2cccs2)n1Cc1ccccc1` here?
**A.** inactive

**Q.** Which outcome does the source give for `O=C(c1cc(-c2ccco2)on1)N1CCCc2ccccc21` here?
**A.** inactive

**Q.** Which outcome does the source give for `COc1cc(C2c3c(n[nH]c3C)C(=O)N2c2ccc(C)cc2)ccc1O` (centres undefined) here?
**A.** inactive

**Q.** For `O=C(NCc1nnc(SCC(=O)N2CCN(c3ccccc3)CC2)o1)c1ccco1`, which outcome is on record?
**A.** inactive

**Q.** For `Cc1ccsc1C1C(C(=O)O)c2ccccc2C(=O)N1C` (centres undefined), which outcome is on record?
**A.** inactive

**Q.** With `CN(CCC(=O)Nc1ccc2c(c1)OCO2)Cc1ccccc1` as the molecule, how does the outcome read?
**A.** inactive

**Q.** For `COc1ccccc1NS(=O)(=O)c1cccc2cccnc12`, which outcome is on record?
**A.** inactive

**Q.** For `COCCCn1c(SCC(=O)NCc2ccco2)nc2sc3c(c2c1=O)CCC3`, which outcome is on record?
**A.** inactive

**Q.** For `COc1ccc(-n2c(=O)c3c4c(sc3n(CC(=O)NCc3ccco3)c2=O)CCC4)c(OC)c1`, which outcome is on record?
**A.** inactive

**Q.** Which outcome does the source give for `O=C(NCc1n[nH]c(=S)n1-c1ccccc1)c1ccco1` here?
**A.** inactive

**Q.** For `CCOC(=O)C1CCN(C(=O)CN(c2ccc(OC)c(OC)c2)S(=O)(=O)c2ccccc2)CC1`, which outcome is on record?
**A.** inactive

**Q.** With `N#Cc1ccc(-c2cccnc2)nc1SCC(=O)Nc1sc2c(c1C#N)CCC2` as the molecule, how does the outcome read?
**A.** inactive

**Q.** With `OCCN(Cc1ccccc1)Cc1cccc(F)c1` as the molecule, how does the outcome read?
**A.** inactive

**Q.** For `CC(C)NC(=O)CSc1nnc(-c2ccc(S(=O)(=O)N3CCCC3)cc2)n1CC1CCCO1` (centres undefined), which outcome is on record?
**A.** inactive

**Q.** For `Nc1nnc(CCS(=O)(=O)c2cc(Cl)ccc2Cl)s1`, which outcome is on record?
**A.** inactive

**Q.** Which outcome does the source give for `COc1c(Br)cc2c(C)c(C(=O)O)oc2c1Br` here?
**A.** inactive

**Q.** With `Cc1ccc(NC2c3ncccc3C(=O)N2c2ccccc2C)cc1C` (centres undefined) as the molecule, how does the IC50 read?
**A.** 4.5 µM

**Q.** With `CCS(=O)(=O)NCCc1csc(C)n1` as the molecule, how does the outcome read?
**A.** inactive

**Q.** With `O=C(COC(=O)Cc1ccc(S(=O)(=O)N2CCOCC2)s1)NCc1ccccc1` as the molecule, how does the outcome read?
**A.** inactive

**Q.** Which outcome does the source give for `CC1CCN(S(=O)(=O)c2ccc(NC(=O)CN3CCN(C)CC3)cc2)CC1` here?
**A.** inactive

**Q.** Which outcome does the source give for `CCn1c(SCC(=O)c2ccccc2)nc2c(c1=O)SC(C)C2` (centres undefined) here?
**A.** inactive

**Q.** Which outcome does the source give for `COc1ccc(NC(=O)c2cc(-c3ccccc3OC)on2)cc1` here?
**A.** inactive

**Q.** Which outcome does the source give for `CC1=NN(c2ccccc2)C(=O)C1` here?
**A.** inactive

**Q.** Which outcome does the source give for `CC(C)C1Oc2ccccc2N(CC(=O)NCCCN2C(C)CCCC2C)C1=O` (centres undefined) here?
**A.** inactive

**Q.** For `CCOC(=O)c1c(C)n(C)c2ccc(O)c(CN3CCC(C)CC3)c12`, which outcome is on record?
**A.** inactive

**Q.** With `Cc1cccc(NC(=O)c2cnc3sccn3c2=O)n1` as the molecule, how does the outcome read?
**A.** inactive

**Q.** With `CCN(CC)S(=O)(=O)c1ccc(C(=O)OCC(=O)N2CCN(C(=O)c3ccco3)CC2)cc1` as the molecule, how does the outcome read?
**A.** inactive

**Q.** Which outcome does the source give for `Oc1ccc(-c2n[nH]c(=S)n2Cc2ccccc2)cc1` here?
**A.** inactive

**Q.** For `Cc1noc(C)c1C(=O)OCC(=O)/C=C1\N(C)c2ccccc2C1(C)C`, which outcome is on record?
**A.** inactive

**Q.** With `CN1CCN(c2nc3c(c(=O)n(C)c(=O)n3C)n2Cc2cccc3ccccc23)CC1` as the molecule, how does the outcome read?
**A.** inactive

**Q.** With `CCOc1ccc(-n2c(-c3ccco3)n[nH]c2=S)cc1` as the molecule, how does the outcome read?
**A.** inactive

**Q.** With `CCn1c(CC(C)C)n[nH]c1=S` as the molecule, how does the outcome read?
**A.** inactive

**Q.** For `N#C/C(=C(/O)COC(=O)CCc1ccc(S(=O)(=O)N2CCOCC2)cc1)c1nc2ccccc2[nH]1`, which outcome is on record?
**A.** inactive

**Q.** For `Cn1cccc1Cc1nnc(SCC(=O)NCc2ccc(F)cc2)n1-c1ccc(F)cc1`, which outcome is on record?
**A.** inactive

**Q.** With `CCN(CC)S(=O)(=O)c1ccc(NC2c3ncccc3C(=O)N2Cc2ccccc2)cc1` (centres undefined) as the molecule, how does the IC50 read?
**A.** 21.9 µM

**Q.** With `O=c1oc2ccccc2c(O)c1CN1CCCCC1` as the molecule, how does the outcome read?
**A.** inactive

target: not listed separately; test: as above; details: purified MK, PK/LDH coupled NADH absorbance 340 nm; measured here: coupling enzymes counter-screen (hexokinase)

**Q.** For `O=c1c2ccccc2nc2n1CCC2`, which IC50 is on record?
**A.** > 1360 µM

**Q.** For `CN(Cc1c(O)ccc2c1oc(=O)c1ccccc12)C1CCCCC1`, which IC50 is on record?
**A.** 8.83 µM

**Q.** Which IC50 does the source give for `CCn1nc(-c2cccs2)nc2c(=O)n(C)c(=O)nc1-2` here?
**A.** 9.46 µM
